From patent US9283222B2 (priority 2006, dated 2016)

Biological target: Recombinant Human Poly(ADP-Ribose) Polymerase (PARP), PARP-1 (Homo sapiens (Human), UniProt P09874)
Details: read-out: PARP-1 (Ki); Table 1; text calls the values EC50s

Recombinant Human Poly(ADP-Ribose) Polymerase (PARP), PARP-1, sequence (P09874 whole entry): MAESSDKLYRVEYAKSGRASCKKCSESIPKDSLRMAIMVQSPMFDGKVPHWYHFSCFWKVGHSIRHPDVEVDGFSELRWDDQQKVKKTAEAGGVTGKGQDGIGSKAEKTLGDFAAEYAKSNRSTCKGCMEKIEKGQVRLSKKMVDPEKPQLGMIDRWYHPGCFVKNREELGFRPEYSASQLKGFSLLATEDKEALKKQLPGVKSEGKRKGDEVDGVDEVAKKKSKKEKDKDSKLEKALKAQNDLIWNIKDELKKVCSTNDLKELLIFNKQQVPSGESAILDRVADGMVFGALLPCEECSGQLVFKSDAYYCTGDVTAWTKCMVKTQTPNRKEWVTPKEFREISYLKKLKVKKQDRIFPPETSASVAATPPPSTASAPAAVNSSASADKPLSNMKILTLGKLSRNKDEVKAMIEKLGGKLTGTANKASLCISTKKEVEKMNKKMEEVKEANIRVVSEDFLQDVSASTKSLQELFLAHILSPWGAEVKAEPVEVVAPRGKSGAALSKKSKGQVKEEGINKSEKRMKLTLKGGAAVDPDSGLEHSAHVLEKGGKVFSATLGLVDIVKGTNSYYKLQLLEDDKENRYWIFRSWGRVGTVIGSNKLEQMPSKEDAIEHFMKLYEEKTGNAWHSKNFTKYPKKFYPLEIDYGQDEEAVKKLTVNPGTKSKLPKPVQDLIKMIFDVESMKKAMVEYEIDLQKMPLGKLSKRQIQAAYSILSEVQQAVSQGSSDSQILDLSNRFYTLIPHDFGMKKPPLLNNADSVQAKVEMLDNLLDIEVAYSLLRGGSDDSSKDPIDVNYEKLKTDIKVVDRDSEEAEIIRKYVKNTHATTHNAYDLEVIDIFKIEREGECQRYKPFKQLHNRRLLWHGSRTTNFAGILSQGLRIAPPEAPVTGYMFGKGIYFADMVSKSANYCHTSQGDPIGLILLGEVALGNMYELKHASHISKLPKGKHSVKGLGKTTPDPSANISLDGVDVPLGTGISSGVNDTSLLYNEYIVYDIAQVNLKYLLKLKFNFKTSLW

Row | SMILES | Ki
1 | O=C1CCCN1c1ccc(Cc2n[nH]c(=O)c3c2CCCC3)cn1 [Example 104, 4-((6-(2-oxopyrrolidin-1-yl)pyridin-3-yl)methyl)-5,6,7,8-tetrahydrophthalazin-1(2H)-one] | 1230 nM
2 | CO[C@H](C(=O)Nc1cccc(Cc2n[nH]c(=O)c3c2CCCC3)c1)c1ccccc1 [Example 152, (2S)-2-methoxy-N-(3-((4-oxo-3,4,5,6,7,8-hexahydrophthalazin-1-yl)methyl)phenyl)-2-phenylacetamide] | 741 nM
3 | O=C(CCc1ccccc1Cl)Nc1cccc(Cc2n[nH]c(=O)c3c2CCCC3)c1 [Example 168, 3-(2-chlorophenyl)-N-(3-((4-oxo-3,4,5,6,7,8-hexahydrophthalazin-1-yl)methyl)phenyl)propanamide] | 127 nM
4 | CCOc1ccccc1C(=O)Nc1cccc(Cc2n[nH]c(=O)c3c2CCCC3)c1 [Example 187, 2-ethoxy-N-(3-((4-oxo-3,4,5,6,7,8-hexahydrophthalazin-1-yl)methyl)phenyl)benzamide] | 1250 nM
5 | CS(=O)(=O)Nc1cccc(-c2cc(CCc3n[nH]c(=O)c4c3CCCC4)ccc2F)c1 [Example 273, N-(2′-fluoro-5′-(2-(4-oxo-3,4,5,6,7,8-hexahydrophthalazin-1-yl)ethyl)-1,1′-biphenyl-3-yl)methanesulfonamide] | 257 nM
6 | Cc1ccc(NC(=O)c2cccc(Cc3n[nH]c(=O)c4c3CCCC4)c2)cc1F [Example 339, N-(3-fluoro-4-methylphenyl)-3-((4-oxo-3,4,5,6,7,8-hexahydrophthalazin-1-yl)methyl)benzamide] | 120 nM
7 | COc1cccc(CCNC(=O)c2cccc(Cc3n[nH]c(=O)c4c3CCCC4)c2)c1OC [Example 402, N-(2-(2,3-dimethoxyphenyl)ethyl)-3-((4-oxo-3,4,5,6,7,8-hexahydrophthalazin-1-yl)methyl)benzamide] | 86 nM
8 | O=C(NCCc1cccnc1)c1cccc(Cc2n[nH]c(=O)c3c2CCCC3)c1 [Example 380, 3-((4-oxo-3,4,5,6,7,8-hexahydrophthalazin-1-yl)methyl)-N-(2-pyridin-3-ylethyl)benzamide] | 71 nM
9 | CC(=O)Nc1cccc(-c2cccc(C(C)Cc3n[nH]c(=O)c4c3CCCC4)c2)c1 (centres unmarked) [Example 284, N-(3′-(1-methyl-2-(4-oxo-3,4,5,6,7,8-hexahydrophthalazin-1-yl)ethyl)-1,1′-biphenyl-3-yl)acetamide] | 2210 nM
10 | O=C(Nc1cccc(Cc2n[nH]c(=O)c3c2CCCC3)c1)c1ccc[nH]1 [Example 200] | 158 nM
11 | O=C(c1cccc(-c2cc(Cc3n[nH]c(=O)c4c3CCCC4)ccc2F)c1)N1CCCC1 [Example 250, 4-((6-fluoro-3′-(pyrrolidin-1-ylcarbonyl)-1,1′-biphenyl-3-yl)methyl)-5,6,7,8-tetrahydrophthalazin-1(2H)-one] | 210 nM
12 | CN(C)CCN(C)C(=O)c1cc(Cc2n[nH]c(=O)c3c2CCCC3)ccc1F [Example 504, N-[2-(dimethylamino)ethyl]-2-fluoro-N-methyl-5-[(4-oxo-3,4,5,6,7,8-hexahydrophthalazin-1-yl)methyl]benzamide] | 3.6 nM
13 | CC(C)N(Cc1ccccc1)C(=O)c1cccc(Cc2n[nH]c(=O)c3c2CCCC3)c1 [Example 421, N-benzyl-N-isopropyl-3-((4-oxo-3,4,5,6,7,8-hexahydrophthalazin-1-yl)methyl)benzamide] | 68 nM
14 | O=C(Nc1cccc(Cc2n[nH]c(=O)c3c2CCCC3)c1)c1ccccc1CCc1ccccc1 [Example 242, N-(3-((4-oxo-3,4,5,6,7,8-hexahydrophthalazin-1-yl)methyl)phenyl)-2-(2-phenylethyl)benzamide] | 610 nM
15 | CC(C)(C)OC(=O)N1CCN(C(=O)OCc2ccccc2)CC1Cc1n[nH]c(=O)c2c1CCCC2 (centres unmarked) [Example 258, 4-benzyl 1-tert-butyl 2-((4-oxo-3,4,5,6,7,8-hexahydrophthalazin-1-yl)methyl)piperazine-1,4-dicarboxylate] | 1770 nM

More lines, in order of falling Ki, values ahead:

Row | Ki | SMILES
16 | 66 nM | O=C(Nc1ccc2c(c1)OCCO2)c1cccc(Cc2n[nH]c(=O)c3c2CCCC3)c1 [Example 358, N-2,3-dihydro-1,4-benzodioxin-6-yl-3-((4-oxo-3,4,5,6,7,8-hexahydrophthalazin-1-yl)methyl)benzamide]
17 | 55 nM | Cc1c(O)cccc1NC(=O)c1cccc(Cc2n[nH]c(=O)c3c2CCCC3)c1 [Example 349, N-(3-hydroxy-2-methylphenyl)-3-((4-oxo-3,4,5,6,7,8-hexahydrophthalazin-1-yl)methyl)benzamide]
18 | 40 nM | CC(=O)c1ccc(C(=O)Nc2cccc(Cc3n[nH]c(=O)c4c3CCCC4)c2)cc1 [Example 226, 4-acetyl-N-(3-((4-oxo-3,4,5,6,7,8-hexahydrophthalazin-1-yl)methyl)phenyl)benzamide]
19 | 34 nM | O=C(NCCCN1CCCCC1)c1cccc(Cc2n[nH]c(=O)c3c2CCCC3)c1 [Example 316, 3-((4-oxo-3,4,5,6,7,8-hexahydrophthalazin-1-yl)methyl)-N-(3-piperidin-1-ylpropyl)benzamide]
20 | 31 nM | O=C(NCCc1ccc(Cl)cc1)c1cccc(Cc2n[nH]c(=O)c3c2CCCC3)c1 [Example 390, N-(2-(4-chlorophenyl)ethyl)-3-((4-oxo-3,4,5,6,7,8-hexahydrophthalazin-1-yl)methyl)benzamide]
21 | 28 nM | O=C(NCCc1c[nH]c2ccccc12)c1cccc(Cc2n[nH]c(=O)c3c2CCCC3)c1 [Example 318, N-(2-(1H-indol-3-yl)ethyl)-3-((4-oxo-3,4,5,6,7,8-hexahydrophthalazin-1-yl)methyl)benzamide]
22 | 25 nM | O=C(Cc1cc(F)cc(F)c1)Nc1cccc(Cc2n[nH]c(=O)c3c2CCCC3)c1 [Example 156, 2-(3,5-difluorophenyl)-N-(3-((4-oxo-3,4,5,6,7,8-hexahydrophthalazin-1-yl)methyl)phenyl)acetamide]
23 | 21 nM | O=C1CCN1c1cc(Cc2n[nH]c(=O)c3c2CCCC3)ccn1 [Example 101, 4-((2-(2-oxoazetidin-1-yl)pyridin-4-yl)methyl)-5,6,7,8-tetrahydrophthalazin-1(2H)-one]
24 | 20 nM | CC1(C)C(=O)NCCN1C(=O)c1cc(Cc2n[nH]c(=O)c3c2NCCC3)ccc1F [Example 667, 8-{3-[(2,2-dimethyl-3-oxopiperazin-1-yl)carbonyl]-4-fluorobenzyl}-2,3,4,6-tetrahydropyrido[2,3-d]pyridazin-5(1H)-one]
25 | 19 nM | COc1ccc(CCNC(=O)c2cccc(Cc3n[nH]c(=O)c4c3CCCC4)c2)cc1OC [Example 405, N-(2-(3,4-dimethoxyphenyl)ethyl)-3-((4-oxo-3,4,5,6,7,8-hexahydrophthalazin-1-yl)methyl)benzamide]
26 | 16 nM | CCN(CC)CCN(C)C(=O)c1cccc(Cc2n[nH]c(=O)c3c2CCCC3)c1 [Example 419, N-(2-(diethylamino)ethyl)-N-methyl-3-((4-oxo-3,4,5,6,7,8-hexahydrophthalazin-1-yl)methyl)benzamide]
27 | 14 nM | CCOCCN1CCN(C(=O)c2cc(Cc3n[nH]c(=O)c4c3NCCC4)ccc2F)CC1 [Example 485, 8-(3-((4-(2-ethoxyethyl)piperazin-1-yl)carbonyl)-4-fluorobenzyl)-2,3,4,6-tetrahydropyrido(2,3-d)pyridazin-5(1H)-one]
28 | 7 nM | CCN(CCN)C(=O)c1cc(Cc2n[nH]c(=O)c3c2CCCC3)ccc1F [Example 719, N-(2-aminoethyl)-N-ethyl-2-fluoro-5-[(4-oxo-3,4,5,6,7,8-hexahydrophthalazin-1-yl)methyl]benzamide]
29 | 5 nM | O=C(c1cc(Cc2n[nH]c(=O)c3c2CCCC3)ccc1F)N1CCN(c2ccccc2Cl)CC1 [Example 517, 4-(3-{[4-(2-chlorophenyl)piperazin-1-yl]carbonyl}-4-fluorobenzyl)-5,6,7,8-tetrahydrophthalazin-1(2H)-one]
30 | 4 nM | CC1(C)CC(=O)N(c2cc(Cc3n[nH]c(=O)c4c3CCCC4)ccc2F)C1=O [Example 299, 1-(2-fluoro-5-((4-oxo-3,4,5,6,7,8-hexahydrophthalazin-1-yl)methyl)phenyl)-3,3-dimethylpyrrolidine-2,5-dione]
31 | 4 nM | O=C(NC1CCN(C(=O)c2ccccn2)CC1)c1cc(Cc2n[nH]c(=O)c3c2NCCC3)ccc1F [Example 736, 2-fluoro-5-[(5-oxo-1,2,3,4,5,6-hexahydropyrido[2,3-d]pyridazin-8-yl)methyl]-N-[1-(pyridin-2-ylcarbonyl)piperidin-4-yl]benzamide]
32 | 2.3 nM | O=C(c1cc(Cc2n[nH]c(=O)c3c2NCCC3)ccc1F)N1CCN(c2cccc(F)c2)CC1 [Example 547, 8-(4-fluoro-3-{[4-(3-fluorophenyl)piperazin-1-yl]carbonyl}benzyl)-2,3,4,6-tetrahydropyrido[2,3-d]pyridazin-5(1H)-one]
33 | 2 nM | CC(=O)Nc1cccc(-c2cc(Cc3n[nH]c(=O)c4c3CCCC4)ccc2F)c1 [Example 248]
34 | 1.7 nM | COc1ccc(C(=O)C2CCN(C(=O)c3cc(Cc4n[nH]c(=O)c5c4NCCC5)ccc3F)CC2)cc1 [Example 610, 8-(4-fluoro-3-{[4-(4-methoxybenzoyl)piperidin-1-yl]carbonyl}benzyl)-2,3,4,6-tetrahydropyrido[2,3-d]pyridazin-5(1H)-one]
35 | 1.3 nM | O=C(c1ccccn1)N1CCN(C(=O)c2cc(Cc3n[nH]c(=O)c4c3CCCC4)ccc2F)CC1 [Example 730, 4-(4-fluoro-3-{[4-(pyridin-2-ylcarbonyl)piperazin-1-yl]carbonyl}benzyl)-5,6,7,8-tetrahydrophthalazin-1(2H)-one]
36 | 0.9 nM | O=C(c1cc(Cc2n[nH]c(=O)c3c2CCCC3)ccc1F)N1CCN(C(=O)N2CCCC2)CC1 [Example 576, 4-(4-fluoro-3-{[4-(pyrrolidine-1-ylcarbonyl)piperazin-1-yl]carbonyl}benzyl)-5,6,7,8-tetrahydrophthalazin-1(2H)-one]
37 | 0.8 nM | O=C(c1cc(Cc2n[nH]c(=O)c3c2CCCC3)ccc1F)N1CCN(c2cnccn2)CC1 [Example 496, 4-{4-fluoro-3-[(4-pyrazin-2-ylpiperazin-1-yl)carbonyl]benzyl}-5,6,7,8-tetrahydrophthalazin-1(2H)-one]
38 | 0.3 nM | CN1CCN(C(=O)c2cc(Cc3n[nH]c(=O)c4c3CCCC4)ccc2F)CC1=O [Example 759, 4-{4-fluoro-3-[(4-methyl-3-oxopiperazin-1-yl)carbonyl]benzyl}-5,6,7,8-tetrahydrophthalazin-1(2H)-one]
